B1: prolactin: hormone prolactin (Sigma), 10 ng/mL (protein, UniProt P01236 29-227, looked up)
Prolactin: LPICPGGAARCQVTLRDLFDRAVVLSHYIHNLSSEMFSEFDKRYTHGRGFITKAINSCHTSSLATPEDKEQAQQMNQKDFLSLIVSILRSWNEPLYHLVTEVRGMQEAPEAILSKAVEIEEQTKRLLEGMELIVSQVHPETKENEIYPVWSGLPSLQMADEESRLSAYYNLLHCLRRDSHKIDNYLKLLKCRIIHNNNC

Key:
[1] = system: TLR8; assay: TLR8 mRNA expression in primary human macrophages incubated with autologous serum; format: cell-based; conditions: primary human macrophages of healthy donors, 24 h
Experimental: RNA was quantitated using a NanoDrop 1000 spectrophotometer (NanoDrop Products, Wilmington, DE). cDNA was synthesized using High Capacity cDNA Reverse Transcription Kit (Applied Biosystems, Foster City, CA) following the manufacturer's protocol and qPCR was performed using the TaqMan system (Applied Biosystems) using cDNA and gene specific primers in accordance with the manufacturer's protocol.
(§1) To target autologous EVs containing miR-21, primary human PBMCs were isolated from whole blood as indicated above, incubated in the presence of 20% autogolous serum, and treated with locked nucleic acid (LNA) sequences designed to antagonize miR-21 (Exiqon, Vedbaek, Denmark) following liposomal complexing with DOTAP (Roche) according to the manufacturer's protocol.

[2] = system: STAT1; assay: STAT1 mRNA transcript expression (qPCR) in hematopoietic cell lines THP-1 and K562; conditions: THP-1 cells, separate hormone treatments, normalized to untreated cells
[3] = system: IL-12; assay: IL-12 secretion of THP-1 cells (ELISA); format: cell-based, human; conditions: 24 h
[4] = system: IL-13; assay: IL-13 secretion of THP-1 cells (ELISA); format: cell-based, human; conditions: 24 h
[5] = system: THP-1 cells; assay: Nanoparticle tracking analysis of extracellular vesicle production by THP-1 cells; format: cell-based, human
Experimental: as §1
The NanoSight LM 10 system (NanoSight, Wiltshire, United Kingdom) was used to measure the rate of Brownian motion of particles to determine the size and quantification of EVs. Briefly, the sample was injected in a NanoSight cubicle and the size of particles was obtained by determining the motion in fluid passing across the chamber. The number of particles per milliliter was measured from a 0-160 nm range and was acquired from both experimental and control samples for comparison using area under the curve calculations obtained via the linear trapezoidal analysis method.

| Molecule | reduction of TLR8 mRNA expression relative to LNA-control [1] | hormonal influence on STAT1 expression [2] | also measured |
| --- | --- | --- | --- |
| LNA antagomiR-21: locked nucleic acid sequence designed to block miR-21, in liposomal complexes with DOTAP; CAACATCAGTCTGATAAGCT (LNA-modified, pattern not given here, delivered in liposomal complexes) | 46% | – | – |
| CCN(CC)CCCC(C)Nc1ccnc2cc(Cl)ccc12 (centres unmarked) [Chloroquine, chloroquine] | over 95% | – | – |
| CC(=O)[C@H]1CC[C@H]2[C@@H]3CCC4=CC(=O)CC[C@]4(C)[C@H]3CC[C@]12C [progesterone] | – | hormonal influence was only observed with estrogen treatment | – |
| C[C@]12CCC(=O)C[C@@H]1CC[C@@H]1[C@@H]2CC[C@]2(C)[C@@H](O)CC[C@@H]12 [dihydrotestosterone, 5α-androstatin-17β-ol-one] | – | hormonal influence was only observed with estrogen treatment | – |
| CCOCc1nc2c(N)nc3ccccc3c2n1CC(C)(C)O [R-848] | – | – | IL-12 expression induced compared to control treatment [3]: 5 fold; IL-13 expression upregulated relative to miR-control pseudoexosomes [4]: 1.75 fold; cumulative extracellular particle profiles (0-160 nm, area under the curve) relative to miR-control [5]: 3.7 fold |
| B1 | – | hormonal influence was only observed with estrogen treatment | – |

From patent publication US12016314B2, “MicroRNA inhibitor therapy in systemic lupus erythematosus” (Ohio State Innovation Foundation, priority 2017, dated 2024)
